According to patent publication US9050334B2, “MIF inhibitors and their uses” (INNOV88 LLC, priority 2010, dated 2015):

Legend:
Native human MIF = target: T1, Native human MIF (Homo sapiens, UniProt P14174); assay: MIF tautomerase activity assay with hydroxyphenyl pyruvic acid (HPP) substrate; format: biochemical; details: absorbance at 300 nm
T1 sequence (P14174 2-115 limits assumed): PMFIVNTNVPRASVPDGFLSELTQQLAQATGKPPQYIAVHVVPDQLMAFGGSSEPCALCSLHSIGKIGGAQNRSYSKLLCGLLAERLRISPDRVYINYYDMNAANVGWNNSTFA
Method: The ability of candidate compounds to inhibit this tautomerase activity are quantitated by using hydroxyphenyl pyruvic acid (HPP) as a substrate (Ouertatani-Sakouhi et al., 2010). The ability of compounds to inhibit the tautomerase activity can be quantitated by following the increase in absorbance due to the enzymatic formation of the HPP enol-borate complex at 300 nm in the absence and presence of a test compound. The IC50 value of compounds are determined by plotting the initial velocities determined at 300 nm as a function of a test compound's concentration. Assays are carried out in a 96 or 384 well plate format. Representative MIF inhibitors were tested in the assay described above and the results tabulated in Table 1 wherein “A” represents≦10 μM; “B” represents>10 μM and <100 μM; “C” represents>100 μM and ≦200 μM; and “D” represents>200 μM.

LPS-stimulated PBMCs = assay: TNF-α production in LPS-stimulated PBMCs; format: cell-based; details: PBMC; human PBMCs, 25 μM compound preincubated 1 hour, LPS stimulation, 24 hours
Method: (§1) Effect of Candidate Compounds on Cytokine Production from Human Cells: Mono-Mac-6 Cells: The cellular efficacy of the inhibitors is determined using the human monocytic cell line, Mono-Mac-6 cells (MM6 cells) as it has been shown that MIF induces the production of inflammatory mediators, including tumor necrosis factor-α (TNF-α) interleukin (IL)-1β, IL-6, IL-8, interferon-γ (IFN-γ) and prostaglandin E2 (PGE2) in these cells (Schwartz et al., 2009). Recombinant human MIF (rhMIF) will be purchased from R&D Systems (Minneapolis, Minn.) or generated in house. To induce the production of inflammatory mediators, MM6 cells will be plated at a final concentration of 5×10^5 cells/ml in RPMI 1640 medium containing 1% heat-inactivated low-pyrogen fetal bovine serum, 2 mM GlutaMAX-1,1% non-essential amino acids, 1% sodium pyruvate, 100 units/ml penicillin G and 100 μg/ml streptomycin (Gibco BRL Life Technologies). Cells will be stimulated with 100 ng/ml rhMIF with or without inhibitor for 20 h at 37° C. with 5% CO2. The supernatants were stored at −20° C. until they were assayed. The levels of inflammatory mediators will be determined using commercial ELISA kits from R&D Systems (Minneapolis, Minn.). Human Periperal Blood Mononuclear Cells (PBMC): Human whole blood is collected from healthy donors in sodium-heparinized tubes (BD Biosciences), and peripheral blood mononucleated cells (PBMC) are isolated by Ficoll separation. Cells are washed in Dulbecco's phosphate-buffered saline, resuspended in media (DMEM) containing 5% low endotoxin (<0.3 EU/ml) fetal Bovine Serum (FBS, GIBCO) and 10 units/ml penicillin/streptomycin, and plated at 5×10^5 cells/well in 96-well tissue culture plates. Lipopolysaccharide (LPS, E. coli Serotype 0111:B4, Sigma) or macrophage migration inhibitory factor are pre-incubated for 15 minutes with compounds dissolved in dimethyl sulfoxide (DMSO). The mixtures are then added to cells to yield final concentrations of 1% DMSO, 100 ng/ml LPS and 1 μg/ml MIF. Cells are incubated for overnight at 37° C., 5% CO2. TNF-α production is measured by ELISA (R&D Systems). Cytotoxicity is assessed using the MTT [3-(4,5-dimethylthiazol-2-yl)-2,5-diphenyl tetrazolium bromide assay. Human Rheumatoid Arthritis Synovial Fibroblast (RASF) Cell Line: RASF cells are derived from the inflamed synovium of a RA patient who was undergoing total knee replacement. Cells are cultured in Dulbecco's modified Eagle's medium with 15% FBS, 1% glutamine, and 1% penicillin/streptamycin (all from Gibco (Invitrogen), Gaithersburg, Md.). Experiments are performed with cells between passages 7 to 10, using trypsin with 0.25% ethylene diamine tetraacetic acid (EDTA)(Gibco) to detach cells. Interleukin 1 or macrophage migration inhibitory factor (MIF, GIBCO) are pre-incubated for 15 minutes with compounds dissolved in dimethyl sulfoxide (DMSO). The mixtures are then added to cells to yield final concentrations of 1% DMSO, 1 ng/ml Interleukin 1 or 1 μg/ml MIF. RASFs are incubated with or without stimuli at 37° C. for 20 h for induction of Interelukin 6. Interleukin 6 levels in culture supernatants are quantitated by ELISA. Representative MIF inhibitors were tested in the assay described above, specifically, human peripheral blood mononuclear cells [PBMCs] were isolated and stimulated with either LPS or rhMIF.

rhMIF-stimulated PBMCs [1] = assay: TNF-α production in rhMIF-stimulated PBMCs; format: cell-based; details: PBMC; human PBMCs, 25 μM compound preincubated 1 hour, rhMIF stimulation, 24 hours
Method: as §1, with “Interleukin 1 or macrophage migration inhibitory factor (MIF, GIBCO) are pre-incubated for 15 minutes with compounds dissolved in dimethyl sulfoxide (DMSO). The mixtures are then added to cells to yield final concentrations of 1% DMSO, 1 ng/ml Interleukin 1 or 1 μg/ml MIF. RASFs are incubated with or without stimuli at 37° C. for 20 h for induction of Interelukin 6.” left out, “Representative MIF inhibitors were tested in the assay described above, specifically, human peripheral blood mononuclear cells [PBMCs] were isolated and stimulated with either LPS or rhMIF.” left out

rhMIF-stimulated PBMCs [2] = assay: IL-6 production in rhMIF-stimulated PBMCs; format: cell-based; details: PBMC; human PBMCs, 25 μM compound preincubated 1 hour, rhMIF stimulation, 24 hours
Method: Effect of Candidate Compounds on Cytokine Production from Human Cells: Mono-Mac-6 Cells: The cellular efficacy of the inhibitors is determined using the human monocytic cell line, Mono-Mac-6 cells (MM6 cells) as it has been shown that MIF induces the production of inflammatory mediators, including tumor necrosis factor-α (TNF-α) interleukin (IL)-1β, IL-6, IL-8, interferon-γ (IFN-γ) and prostaglandin E2 (PGE2) in these cells (Schwartz et al., 2009). Recombinant human MIF (rhMIF) will be purchased from R&D Systems (Minneapolis, Minn.) or generated in house. To induce the production of inflammatory mediators, MM6 cells will be plated at a final concentration of 5×10^5 cells/ml in RPMI 1640 medium containing 1% heat-inactivated low-pyrogen fetal bovine serum, 2 mM GlutaMAX-1,1% non-essential amino acids, 1% sodium pyruvate, 100 units/ml penicillin G and 100 μg/ml streptomycin (Gibco BRL Life Technologies). Cells will be stimulated with 100 ng/ml rhMIF with or without inhibitor for 20 h at 37° C. with 5% CO2. The supernatants were stored at −20° C. until they were assayed. The levels of inflammatory mediators will be determined using commercial ELISA kits from R&D Systems (Minneapolis, Minn.). […] Cytotoxicity is assessed using the MTT [3-(4,5-dimethylthiazol-2-yl)-2,5-diphenyl tetrazolium bromide assay. […] Interleukin 6 levels in culture supernatants are quantitated by ELISA. […]

SMILES | IC50 (Native human MIF) | inhibition at 25 µM (LPS-stimulated PBMCs) | inhibition at 25 µM (rhMIF-stimulated PBMCs [1]) | inhibition at 25 µM (rhMIF-stimulated PBMCs [2])
Cn1c(=O)c(C#N)c(N2CC(NC(=O)c3cccs3)C2)c2ccccc21 [Compound XXI, N-[1-(3-cyano-1-methyl-2-oxo-1,2-dihydroquinolin-4-yl)azetidin-3-yl]thiophene-2-carboxamide] | 10 to 100 µM | ≤ 10% | 10 to 50% | 10 to 50%
N#Cc1c(NC2CN(S(=O)(=O)c3cccs3)C2)c2ccccc2n(Cc2ccc(F)cc2)c1=O [XXXIV, 1-(4-fluorobenzyl)-2-oxo-4-(1-(thiophen-2-ylsulfonyl)azetidin-3-ylamino)-1,2-dihydroquinoline-3-carbonitrile] | > 200 µM |  |  | 
N#Cc1c(N2CC(C(=O)c3cccs3)C2)c2ccccc2n(Cc2ccc(F)cc2)c1=O [XXXVIII] | 100 to 200 µM |  |  | 
N#Cc1c(N2CCC(C(=O)c3cccs3)CC2)c2ccccc2n(Cc2ccc(F)cc2)c1=O [Compound XXVIII, 1-(4-fluorobenzyl)-2-oxo-4-[4-(thiophen-2-ylcarbonyl)piperidin-1-yl]-1,2-dihydroquinoline-3-carbonitrile] | 100 to 200 µM | 10 to 50% |  | 
Cn1c(=O)c(C#N)c(N2CCC(C(=O)NCc3ccncc3)CC2)c2ccccc21 [Compound XI, 1-(3-cyano-1-methyl-2-oxo-1,2-dihydroquinolin-4-yl)N-(pyridin-4-ylmethyl)piperidine-4-carboxamide] | > 200 µM |  |  | 
Cn1c(=O)c(C#N)c(N2CCC(C(=O)c3cccs3)CC2)c2ccccc21 [Compound IV, 1-methyl-2-oxo-4-[4-(thiophen-2-ylcarbonyl)piperidin-1-yl]-1,2-dihydroquinoline-3-carbonitrile] | 100 to 200 µM | 10 to 50% |  | 
Cn1c(=O)c(C#N)c(N2CCC(C(=O)O)CC2)c2ccccc21 [Compound X, 1-(3-cyano-1-methyl-2-oxo-1,2-dihydroquinolin-4-yl)piperidine-4-carboxylic acid] | > 200 µM |  |  | 
Cn1c(=O)c(C#N)c(NC2CCN(S(C)(=O)=O)CC2)c2ccccc21 [Compound XXV] | > 200 µM |  |  | 
Cn1c(=O)c(C#N)c(N2CCC(C(=O)NCCO)CC2)c2ccccc21 [XIII] | > 200 µM |  |  | 
Cn1c(=O)c(C#N)c(NC2CN(S(C)(=O)=O)C2)c2ccccc21 [Compound XXVI, 1-methyl-4-(1-(methylsulfonyl)azetidin-3-ylamino)-2-oxo-1,2-dihydroquinoline-3-carbonitrile] | 10 to 100 µM |  |  | 
CN(C)C(=O)C1CCN(c2c(C#N)c(=O)n(C)c3ccccc23)CC1 [XII] | > 200 µM |  |  | 

The next lines start with results.

IC50 (Native human MIF) | SMILES | inhibition at 25 µM (LPS-stimulated PBMCs) | inhibition at 25 µM (rhMIF-stimulated PBMCs [1]) | inhibition at 25 µM (rhMIF-stimulated PBMCs [2])
≤ 10 µM | Cn1c(=O)c(C#N)c(NC2CN(C(=O)c3cccs3)C2)c2ccccc21 [XXIV, 1-methyl-2-oxo-4-(1-(thiophene-2-carbonyl)azetidin-3-ylamino)-1,2-dihydroquinoline-3-carbonitrile] | 50 to 70% | > 70% | 10 to 50%
≤ 10 µM | Cn1c(=O)c(C#N)c(NC2CCN(C(=O)c3cccs3)CC2)c2ccccc21 [XVII-1, 1-methyl-2-oxo-4-{[1-(thiophen-2-ylcarbonyl)piperidin-4-yl]amino}-1,2-dihydroquinoline-3-carbonitrile] | 50 to 70% |  | 
≤ 10 µM | N#Cc1c(NC2CN(C(=O)c3ccncc3)C2)c2ccccc2n(Cc2ccc(F)cc2)c1=O [XXXV] |  | 10 to 50% | 
10 to 100 µM | N#Cc1c(NC2CN(C(=O)c3cncnc3)C2)c2ccccc2n(Cc2ccc(F)cc2)c1=O [XXXVII] |  |  | 
≤ 10 µM | Cn1c(=O)c(C#N)c(N2CCC(NC(=O)c3cccs3)CC2)c2ccccc21 [Compound VIII, N-[1-(3-cyano-1-methyl-2-oxo-1,2-dihydroquinolin-4-yl)piperidin-4-yl]thiophene-2-carboxamide] | 10 to 50% |  | 
10 to 100 µM | Cn1c(=O)c(C#N)c(N2CC(C(=O)c3cccs3)C2)c2ccccc21 [Compound V] | > 70% |  | 
≤ 10 µM | N#Cc1c(NC2CN(C(=O)c3cccs3)C2)c2ccccc2n(Cc2ccc(F)cc2)c1=O [XXXVI] |  | > 70% | 
≤ 10 µM | Cn1c(=O)c(C#N)c(N2CCC(C(=O)Nc3nccs3)CC2)c2ccccc21 [XIV] |  |  | 
≤ 10 µM | N#Cc1c(NC2CCN(C(=O)c3cccs3)CC2)c2ccccc2n(Cc2ccc(F)cc2)c1=O [XXXIII] | 50 to 70% |  | 
≤ 10 µM | Cn1c(=O)c(C#N)c(N2CC(C(=O)NCc3ccncc3)C2)c2ccccc21 [Compound XIX, 1-(3-cyano-1-methyl-2-oxo-1,2-dihydroquinolin-4-yl)-N-(pyridin-4-ylmethyl)azetidine-3-carboxamide] |  |  | 
≤ 10 µM | Cn1c(=O)c(C#N)c(N2CCC(C(=O)Nc3ccn[nH]3)CC2)c2ccccc21 [Compound XV] |  |  | 
